Among the data in US8450313B2, “2,3-diaryl- or heteroaryl-substituted 1,1,1-trifluoro-2-hydroxypropyl compounds” (Hoffmann-La Roche Inc., priority 2009, dated 2013) are Ki values, retold here.

Molecules are shown by their SMILES.

For this assay, the target named is T1, full length human recombinant glucocorticoid receptor (Homo sapiens, UniProt P04150).
T1 construct: It contains some partially purified full length human recombinant glucocorticoid receptor; purchased Panvera/Invitrogen PV4302
T1 sequence (P04150 1-777): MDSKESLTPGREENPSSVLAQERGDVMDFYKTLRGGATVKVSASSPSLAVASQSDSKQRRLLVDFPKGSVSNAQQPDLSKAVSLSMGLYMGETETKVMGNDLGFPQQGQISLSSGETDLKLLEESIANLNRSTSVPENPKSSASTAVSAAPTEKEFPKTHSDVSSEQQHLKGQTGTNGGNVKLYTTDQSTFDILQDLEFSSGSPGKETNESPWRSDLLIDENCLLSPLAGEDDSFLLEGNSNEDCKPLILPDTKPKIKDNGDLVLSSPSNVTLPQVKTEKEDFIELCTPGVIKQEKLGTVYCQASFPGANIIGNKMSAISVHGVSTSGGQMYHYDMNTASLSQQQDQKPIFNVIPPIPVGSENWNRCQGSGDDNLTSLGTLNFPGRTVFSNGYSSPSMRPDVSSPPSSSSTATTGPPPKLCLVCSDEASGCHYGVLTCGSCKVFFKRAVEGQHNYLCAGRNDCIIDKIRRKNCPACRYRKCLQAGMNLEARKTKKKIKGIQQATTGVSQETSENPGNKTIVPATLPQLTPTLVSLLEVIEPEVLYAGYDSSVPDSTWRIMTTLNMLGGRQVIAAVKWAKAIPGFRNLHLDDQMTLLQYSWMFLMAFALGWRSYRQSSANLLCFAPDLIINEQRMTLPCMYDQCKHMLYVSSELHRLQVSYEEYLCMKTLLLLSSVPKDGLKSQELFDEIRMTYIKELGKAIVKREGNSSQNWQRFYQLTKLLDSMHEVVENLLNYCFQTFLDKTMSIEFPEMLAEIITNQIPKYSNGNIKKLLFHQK
Briefly: Glucocorticoid Receptor Binding Assay (Glucocorticoid Receptor Competitor Assay far red kit, fluorescence polarization). The note with it: competition with fluorescent GR ligand Fluormone GS Far Red, 3 hours at 22° C., pH 7.4; Ki calculated from IC50 by Cheng-Prusoff. In outline: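 Compounds in serial dilution (from intermediate 4.2% DMSO stock) displace Fluormone GS Far Red from full-length human recombinant GR with stabilizing peptide, pH 7.4, incubated 3 hours at 22° C dark. Polarized fluorescence (610–660 nm) gives IC50 via sigmoidal fit, converted to Ki by Cheng-Prusoff.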
One may read the Ki as a dissociation constant, usually derived from enzyme kinetics or from competition with a known ligand. Consider `C[C@@H](c1ccc(Oc2ccc(C(=O)O)c(Cl)c2)cc1Cl)[C@](O)(c1ccc2c(c1)N(C)C(=O)CO2)C(F)(F)F` [Example 219, 2-Chloro-4-{3-chloro-4-[(1S,2S)-3,3,3-trifluoro-2-hydroxy-1-methyl-2-(4-methyl-3-oxo-3,4-dihydro-2H-benzo[1,4]oxazin-6-yl)-propyl]-phenoxy}-benzoic acid], for which the Ki is 0.8 nM.
For the molecule `C[C@H](c1ccc(Oc2ccc(C(=O)O)c(F)c2)cc1Cl)[C@@](O)(c1ccc2c(c1)N(C)C(=O)CO2)C(F)(F)F` [Example 57], the Ki is 1.3 nM.
Under `C[C@H](c1ccc(Oc2cc(Cl)c(C(=O)O)cn2)cc1Cl)[C@@](O)(c1ccc2c(c1)n(C)c(=O)n2C)C(F)(F)F` (stereo in doubt) [Example 109, 4-Chloro-6-{3-chloro-4-[2-(1,3-dimethyl-2-oxo-2,3-dihydro-1H-benzoimidazol-5-yl)-3,3,3-trifluoro-2-hydroxy-1-methyl-propyl]-phenoxy}-nicotinic acid] stands 1.1 nM; under `CCOC(=O)COc1cc(-c2ccc([C@H](C)[C@](O)(c3cc(F)c4c(c3)N(C)C(=O)CO4)C(F)(F)F)c(Cl)c2)ccc1F` (relative stereo) [Example 47, {3′-Chloro-4-fluoro-4′-[3,3,3-trifluoro-2-(8-fluoro-4-methyl-3-oxo-3,4-dihydro-2H-benzo[1,4]oxazin-6-yl)-2-hydroxy-1-methyl-propyl]-biphenyl-3-yloxy}-acetic acid ethyl ester], 2 nM.
Under `C[C@H](c1ccc(-c2ccc(C(=O)O)c(F)c2)cc1Cl)[C@@](O)(c1ccc2oc(=O)n(C)c2c1)C(F)(F)F` [Example 120, 3′-Chloro-3-fluoro-4′-[(1R,2R)-3,3,3-trifluoro-2-hydroxy-1-methyl-2-(3-methyl-2-oxo-2,3-dihydro-benzooxazol-5-yl)-propyl]-biphenyl-4-carboxylic acid] stands 46 nM; under `COC(=O)c1ccc(-c2ccc([C@@H](C)[C@@](O)(c3ccc4oc(=O)n(C)c4c3)C(F)(F)F)c(Cl)c2)cc1F` (relative stereo) [Example 117, 3′-Chloro-3-fluoro-4′-[3,3,3-trifluoro-2-hydroxy-1-methyl-2-(3-methyl-2-oxo-2,3-dihydro-benzooxazol-5-yl)-propyl]-biphenyl-4-carboxylic acid methyl ester], 2.2 nM; under `C[C@H](c1ccc(Oc2ccc(C(=O)O)cn2)cc1Cl)[C@@](O)(c1ccc(C#N)cc1)C(F)(F)F` (stereo in doubt) [Example 157, 6-{3-Chloro-4-[2-(4-cyano-phenyl)-3,3,3-trifluoro-2-hydroxy-1-methyl-propyl]-phenoxy}-nicotinic acid], 19.8 nM.
Then `CC(c1ccc(-c2ccc(C(=O)O)c(F)c2)cc1Cl)C(O)(c1ccc2c(c1)n(C)c(=O)n2C)C(F)(F)F` (stereo not drawn) [Example 73, 3′-Chloro-4′-[2-(1,3-dimethyl-2-oxo-2,3-dihydro-1H-benzoimidazol-5-yl)-3,3,3-trifluoro-2-hydroxy-1-methyl-propyl]-3-fluoro-biphenyl-4-carboxylic acid], with 7.3 nM; and `C[C@H](c1ccc(C(=O)NCC(=O)OC(C)(C)C)cc1Cl)[C@@](O)(c1ccc2oc(=O)n(C)c2c1)C(F)(F)F` (stereo in doubt) [Example 231, {3-Chloro-4-[3,3,3-trifluoro-2-hydroxy-1-methyl-2-(3-methyl-2-oxo-2,3-dihydrobenzooxazol-5-yl)-propyl]-benzoylamino}-acetic acid tert-butyl ester], with 6.9 nM; and `C[C@@H](c1ccc(-c2ccccc2C(=O)O)cc1Cl)[C@](O)(c1ccc2c(c1)N(C)C(=O)CO2)C(F)(F)F` (relative stereo) [Example 24, 3′-Chloro-4′-[3,3,3-trifluoro-2-hydroxy-1-methyl-2-(4-methyl-3-oxo-3,4-dihydro-2H-benzo[1,4]oxazin-6-yl)-propyl]-biphenyl-2-carboxylic acid], with 19.6 nM.
For the molecule `C[C@H](c1ccc(Oc2ccccc2C(=O)O)cc1Cl)[C@@](O)(c1ccc2c(c1)n(C)c(=O)n2C)C(F)(F)F` (relative stereo) [Example 96, 2-{3-Chloro-4-[2-(1,3-dimethyl-2-oxo-2,3-dihydro-1H-benzoimidazol-5-yl)-3,3,3-trifluoro-2-hydroxy-1-methyl-propyl]-phenoxy}-benzoic acid], the inhibition constant (Ki) was 2.4 nM.
Under `C[C@H](c1ccc(Oc2ccc(C(=O)O)c(F)c2)cc1Cl)[C@@](O)(c1ccc2c(c1)OCC(=O)N2C)C(F)(F)F` (stereo in doubt) [Example 166, 4-{3-Chloro-4-[3,3,3-trifluoro-2-hydroxy-1-methyl-2-(4-methyl-3-oxo-3,4-dihydro-2H-benzo[1,4]oxazin-7-yl)-propyl]phenoxy}-2-fluoro-benzoic acid] stands 2.7 nM.
Then `C[C@H](c1ccc(Oc2cc(C(=O)O)c(C(F)(F)F)cn2)cc1Cl)[C@@](O)(c1ccc2c(c1)n(C)c(=O)n2C)C(F)(F)F` (stereo in doubt) [Example 110, 2-{3-Chloro-4-[2-(1,3-dimethyl-2-oxo-2,3-dihydro-1H-benzoimidazol-5-yl)-3,3,3-trifluoro-2-hydroxy-1-methyl-propyl]-phenoxy}-5-trifluoromethyl-isonicotinic acid], with 2.1 nM.
Then `C[C@@H](c1cc(Oc2ccc(F)c(C(=O)O)c2)ccc1Cl)[C@](O)(c1ccc2c(c1)N(C)C(=O)CO2)C(F)(F)F` (relative stereo) [Example 11, 5-{4-Chloro-3-[3,3,3-trifluoro-2-hydroxy-1-methyl-2-(4-methyl-3-oxo-3,4-dihydro-2H-benzo[1,4]oxazin-6-yl)-propyl]-phenoxy}-2-fluoro-benzoic acid], with 2.4 nM; and `COC(=O)c1cnc(Oc2ccc([C@@H](C)[C@@](O)(c3ccc4c(c3)N(C)C(=O)CO4)C(F)(F)F)c(Cl)c2)c(Cl)c1` (racemic) [Example 212, 5-Chloro-6-{3-chloro-4-[3,3,3-trifluoro-2-hydroxy-1-methyl-2-(4-methyl-3-oxo-3,4-dihydro-2H-benzo[1,4]oxazin-6-yl)-propyl]-phenoxy}-nicotinic acid methyl ester], with 1 nM; and `C[C@H](c1ccc(-c2ccc(F)c(C(=O)O)c2)cc1Cl)[C@@](O)(c1ccc2c(c1)oc(=O)n2C)C(F)(F)F` (relative stereo) [Example 178, 3′-Chloro-4-fluoro-4′-[3,3,3-trifluoro-2-hydroxy-1-methyl-2-(3-methyl-2-oxo-2,3-dihydro-benzooxazol-6-yl)-propyl]-biphenyl-3-carboxylic acid], with 114 nM.
In the case of `C[C@H](c1ccc(-c2cncnc2)cc1Cl)[C@@](O)(c1ccc2oc(=O)n(C)c2c1)C(F)(F)F` (relative stereo) [Example 194, 5-[2-(2-Chloro-4-pyrimidin-5-yl-phenyl)-1-hydroxy-1-trifluoromethyl-propyl]-3-methyl-3H-benzooxazol-2-one], the inhibition constant Ki was 0.7 nM.
Then `C[C@H](c1ccc(Oc2ccc(C(F)(F)F)c(C(=O)O)n2)cc1Cl)[C@@](O)(c1ccc2c(c1)n(C)c(=O)n2C)C(F)(F)F` (stereo in doubt) [Example 112, 6-{3-Chloro-4-[2-(1,3-dimethyl-2-oxo-2,3-dihydro-1H-benzoimidazol-5-yl)-3,3,3-trifluoro-2-hydroxy-1-methyl-propyl]-phenoxy}-3-trifluoromethyl-pyridine-2-carboxylic acid], with 26.4 nM.
